B1: Drosophila melanogaster β-carbonic anhydrase (DmBCA) (enzyme, UniProt Q9VHJ5 1-255, looked up)
chain: MERILRGIMRYRNTTREQMVKEFQKVRDNPEPKAVFFTCMDSRMIPTRYTDTHVGDMFVVRNAGNLIPHAQHFQDEYFSCEPAALELGCVVNDIRHIIVCGHSDCKAMNLLYQLRDPDFASKLNRRLSPLRSWLCTHANTSLERFQEWRDAGMKDPLIFSSETPLRRFVAYIDEEQKFALEDKLSQINTLQQMSNIASYGFLKARLESHDLHIHALWFDIYTGDIYYFSRGAKRFLPVDEDTVDRLSEEVRRFYS
notes: cDNA from S2 cells; A thrombin cleavage site stands between DmBCA and the C-terminal His6 (primer R4 encodes LVPRGS-HHHHHH after the last residue); also called D. melanogaster β-CA; Drosophila β-CA; source: Sf9 insect cells (baculovirus), purified from the culture supernatant (Probond nickel-chelating resin)

Molecular target: the molecule itself
Assay: dynamic light scattering + SEC; DLS (Zetasizer ZS): proteins exchanged to 50 mM Na2HPO4 pH 7.0, 100 mM NaCl, temperature scan 4-50°C, mass estimated from the hydrodynamic diameter with a globular protein standard curve; analytical gel filtration: Superdex200 10/300GL, 50 mM Na2HPO4, 650 mM NaCl pH 7.0, 20-30 μg protein per run

**Q.** How did the “stoichiometry N” value turn out when B1 was run?
**A.** 2

What follows are molecules tested against T1, DmBCA (Drosophila melanogaster, UniProt Q9VHJ5) (assay: stopped-flow CO2 hydration assay).
T1 construct: gene CAHbeta; C-terminal thrombin site and His6; baculovirus/Sf9, purified from culture supernatant; thrombin treatment to remove tag; 28/27 kDa before/after thrombin; dimer
T1 sequence (Q9VHJ5 1-255): B1 chain
Assay type: biochemical

**Q.** For `N#CS` [SCN^-], which Ki is on record?
**A.** 1280 µM

**Q.** With `O=[N+]([O-])O` [NO3^-] as the molecule, how does the Ki read?
**A.** 43700 µM

**Q.** `NS(=O)(=O)O` [H2NSO3H] was tested. Which Ki did it give?
**A.** 2450 µM

**Q.** How did the Ki turn out when `Br` [Br^-] was run?
**A.** 1040 µM

**Q.** `Cl` [Cl^-] was tested. Which Ki did it give?
**A.** 970 µM

**Q.** `O=S(=O)(O)O` [SO4^2-] was tested. Which Ki did it give?
**A.** 1360 µM

**Q.** `O=C(O)O` [HCO3^-] was tested. Which Ki did it give?
**A.** 26900 µM

**Q.** `NS(N)(=O)=O` [H2NSO2NH2] was tested. Which Ki did it give?
**A.** 150 µM

**Q.** With `I` [I^-] as the molecule, how does the Ki read?
**A.** 1180 µM

**Q.** With `OB(O)c1ccccc1` [Ph-B(OH)2] as the molecule, how does the Ki read?
**A.** 22400 µM

**Q.** `O=NO` [NO2^-] was tested. Which Ki did it give?
**A.** 28600 µM

**Q.** How did the Ki turn out when `N#CO` [CNO^-] was run?
**A.** 730 µM

**Q.** `F` [F^-] was tested. Which Ki did it give?
**A.** 800 µM

**Q.** How did the Ki turn out when `O=S(O)O` [HSO3^-] was run?
**A.** 1290 µM

**Q.** `S` [HS^-] was tested. Which Ki did it give?
**A.** 1010 µM
